Assay results as given in patent US20170253607A1, “LONG-ACTING HIV PROTEASE INHIBITOR” (Shionogi & Co., Ltd., priority 2014, published 2017).

Molecular target: HIV-1 PR (Human immunodeficiency virus type 1 group M subtype B, UniProt P04585)
Assay: HIV-protease inhibitory activity assay (FRET peptide substrate)
Assay type: biochemical
Settings: Test Example 1
In short: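 Fluorescence recovery at ex 485/em 535 nm reports cleavage of a quenched FRET peptide (2 μmol/L final) by 0.83 ng enzyme over 60 minutes at room temperature. Buffer was NaAc pH 4.8 with NaCl, EDTA, DTT and Tween 20. IC50 values came from four-parameter logistic regression of % inhibition.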

Compared with COc1ccc(S(=O)(=O)N(CC(C)C)CC(O)C(Cc2ccc(NCc3ccc(C=CC(=O)Nc4sc5c(c4C(=O)O)CC(C)(C)CC5)cc3)cc2)NC(=O)OC2COC3(C)OCCC23)cc1 (stereo not drawn) [Compound I-444], COc1ccc(S(=O)(=O)N(CC(C)C)CC(O)C(Cc2ccc(NCc3cc(C(=O)Nc4sc5c(c4C(=O)O)CC(C)(C)CC5)n(C)c3)cc2)NC(=O)OC2COC3(C)OCCC23)cc1 (stereo not drawn) [Compound I-445] is 1.8-fold lower in IC50: 5.1 nM for the first, 2.78 nM for the second. The second is the more potent here.

COc1ccc(S(=O)(=O)N(CC(C)C)CC(O)C(Cc2ccc(NCc3cc(C(F)(F)F)ccc3-n3nc(C(=O)O)c4c3CCC(C)(C)C4)cc2)NC(=O)OC2COC3(C)OCCC23)cc1 (stereo not drawn) [Compound I-446] and COc1ccc(S(=O)(=O)N(CC(C)C)CC(O)C(Cc2ccc(N(C)Cc3cc(C(F)(F)F)ccc3-n3nc(C(=O)O)c4c3CCC(C)(C)C4)cc2)NC(=O)OC2COC3(C)OCCC23)cc1 (stereo not drawn) [Compound I-447] are within 1.5-fold of each other in IC50: 2.12 nM for the first, 2.37 nM for the second.

COc1ccc(S(=O)(=O)N(CC(C)C)CC(O)C(Cc2ccc(N(C)Cc3cc(C#N)ccc3-c3sc4c(c3C(=O)O)CC(C)(C)CC4)cc2)NC(=O)OC2COC3(C)OCCC23)cc1 (stereo not drawn) [Compound I-452] and COc1ccc(S(=O)(=O)N(CC(C)C)CC(O)C(Cc2ccc(N(C)Cc3ccncc3-c3sc4c(c3C(=O)O)CC(C)(C)CC4)cc2)NC(=O)OC2COC3(C)OCCC23)cc1 (stereo not drawn) [Compound I-489] are within 1.5-fold of each other in IC50: 2.6 nM for the first, 1.81 nM for the second.

Compared with COc1ccc(S(=O)(=O)N(CC(C)C)CC(O)C(Cc2ccc(N(Cc3ccccc3-c3sc4c(c3C(=O)O)CC(C)(C)CC4)CC3CCCC3)cc2)NC(=O)OC2COC3(C)OCCC23)cc1 (stereo not drawn) [Compound I-456], COc1ccc(S(=O)(=O)N(CC(C)C)CC(O)C(Cc2ccc(N(Cc3ccccc3-c3sc4c(c3C(=O)O)CC(C)(C)CC4)CC3CCC3)cc2)NC(=O)OC2COC3(C)OCCC23)cc1 (stereo not drawn) [Compound I-463] is 2.7-fold lower in IC50: 13.6 nM for the first, 5.13 nM for the second. The second is the more potent here.

Going from CCCCN(Cc1ccccc1-c1sc2c(c1C(=O)O)CC(C)(C)CC2)c1ccc(CC(NC(=O)OC2COC3(C)OCCC23)C(O)CN(CC(C)C)S(=O)(=O)c2ccc(OC)cc2)cc1 (stereo not drawn) [Compound I-457] to CCCN(Cc1ccccc1-c1sc2c(c1C(=O)O)CC(C)(C)CC2)c1ccc(CC(NC(=O)OC2COC3(C)OCCC23)C(O)CN(CC(C)C)S(=O)(=O)c2ccc(OC)cc2)cc1 (stereo not drawn) [Compound I-462], the IC50 falls from 5.63 nM to 3.33 nM (1.7-fold).

First: CCCCCCCCCN(Cc1ccccc1-c1sc2c(c1C(=O)O)CC(C)(C)CC2)c1ccc(CC(NC(=O)OC2COC3(C)OCCC23)C(O)CN(CC(C)C)S(=O)(=O)c2ccc(OC)cc2)cc1 (stereo not drawn) [Compound I-458]
Second: COc1ccc(S(=O)(=O)N(CC(C)C)CC(O)C(Cc2ccc(N(CCC(C)C)Cc3ccccc3-c3sc4c(c3C(=O)O)CC(C)(C)CC4)cc2)NC(=O)OC2COC3(C)OCCC23)cc1 (stereo not drawn) [Compound I-461]
The IC50 of the first is 7.2-fold higher: 51 nM for the first, 7.09 nM for the second.

Compared with COc1ccc(S(=O)(=O)N(CC(C)C)CC(O)C(Cc2ccc(N(CCC(C)(C)C)Cc3ccccc3-c3sc4c(c3C(=O)O)CC(C)(C)CC4)cc2)NC(=O)OC2COC3(C)OCCC23)cc1 (stereo not drawn) [Compound I-459], COc1ccc(S(=O)(=O)N(CC(C)C)CC(O)C(Cc2ccc(N(Cc3ccccc3-c3sc4c(c3C(=O)O)CC(C)(C)CC4)CC3CC3)cc2)NC(=O)OC2COC3(C)OCCC23)cc1 (stereo not drawn) [Compound I-460] is 5.1-fold lower in IC50: 18.4 nM for the first, 3.58 nM for the second. The second is the more potent here.

COc1ccc(S(=O)(=O)N(CC(C)C)CC(O)C(Cc2ccc(N(C)Cc3ccc(OC)c(-c4sc5c(c4C(=O)O)CC(C)(C)CC5)c3)cc2)NC(=O)OC2COC3(C)OCCC23)cc1 (stereo not drawn) [Compound I-464] and COc1ccc(S(=O)(=O)N(CC(C)C)CC(O)C(Cc2ccc(N(C)Cc3cccc(F)c3-c3sc4c(c3C(=O)O)CC(C)(C)CC4)cc2)NC(=O)OC2COC3(C)OCCC23)cc1 (stereo not drawn) [Compound I-493] are within 1.5-fold of each other in IC50: 2.52 nM for the first, 2.43 nM for the second.

First: COc1ccc(S(=O)(=O)N(CC(C)C)CC(O)C(Cc2ccc(Nc3ccc(-c4sc5c(c4C(=O)O)CC(C)(C)CC5)cc3)cc2)NC(=O)OC2COC3(C)OCCC23)cc1 (stereo not drawn) [Compound I-468]
Second: COc1ccc(S(=O)(=O)N(CC(C)C)CC(O)C(Cc2ccc(Nc3cccc(-c4sc5c(c4C(=O)O)CC(C)(C)CC5)c3)cc2)NC(=O)OC2COC3(C)OCCC23)cc1 (stereo not drawn) [Compound I-478]
The IC50 of the first is 2.5-fold higher: 5.6 nM for the first, 2.25 nM for the second.

First: COc1ccc(S(=O)(=O)N(CC(C)C)CC(O)C(Cc2ccc(N(C)c3ccc(-c4sc5c(c4C(=O)O)CC(C)(C)CC5)cc3)cc2)NC(=O)OC2COC3(C)OCCC23)cc1 (stereo not drawn) [Compound I-469]
Second: COc1ccc(S(=O)(=O)N(CC(C)C)CC(O)C(Cc2ccc(N(C)c3cccc(-c4sc5c(c4C(=O)O)CC(C)(C)CC5)c3)cc2)NC(=O)OC2COC3(C)OCCC23)cc1 (stereo not drawn) [Compound I-479]
The IC50 of the first is 2.1-fold higher: 5.16 nM for the first, 2.49 nM for the second. The second is the more potent here.

Going from COc1ccc(S(=O)(=O)N(CC(C)C)CC(O)C(Cc2ccc(N(C)CC3CCCC3c3sc4c(c3C(=O)O)CC(C)(C)CC4)cc2)NC(=O)OC2COC3(C)OCCC23)cc1 (stereo not drawn) [Compound I-470] to COc1ccc(S(=O)(=O)N(CC(C)C)CC(O)C(Cc2ccc(N(C)Cc3cccc(-c4sc5c(c4C(=O)O)CC(C)(C)CC5)n3)cc2)NC(=O)OC2COC3(C)OCCC23)cc1 (stereo not drawn) [Compound I-494], the IC50 falls from 2.67 nM to 1.46 nM (1.8-fold).

COc1ccc(S(=O)(=O)N(CC2CC2)CC(O)C(Cc2ccc(NCc3ccccc3-c3sc4c(c3C(=O)O)CC(C)(C)CC4)cc2)NC(=O)OC2COC3(C)OCCC23)cc1 (stereo not drawn) [Compound I-472] and CC(C)CN(CC(O)C(Cc1ccc(NCc2ccccc2-c2sc3c(c2C(=O)O)CC(C)(C)CC3)cc1)NC(=O)OC1COC2(C)OCCC12)S(=O)(=O)c1ccc(N)cc1 (stereo not drawn) [Compound I-476] are within 1.5-fold of each other in IC50: 2.27 nM for the first, 1.99 nM for the second.

COc1ccc(S(=O)(=O)N(CC(C)C)CC(O)C(Cc2ccc(N(C)Cc3ncccc3-c3ccccc3-c3sc4c(c3C(=O)O)CC(C)(C)CC4)cc2)NC(=O)OC2COC3(C)OCCC23)cc1 (stereo not drawn) [Compound I-477] and COc1ccc(S(=O)(=O)N(CC(C)C)CC(O)C(Cc2ccc(N(C)Cc3ncccc3-c3cccc(-c4sc5c(c4C(=O)O)CC(C)(C)CC5)c3)cc2)NC(=O)OC2COC3(C)OCCC23)cc1 (stereo not drawn) [Compound I-512] are within 1.5-fold of each other in IC50: 2 nM for the first, 1.63 nM for the second.

Going from CC(C)CN(CC(O)C(Cc1ccc(NCc2ccccc2-c2sc3c(c2C(=O)O)CC(C)(C)CC3)cc1)NC(=O)OC1COC2(C)OCCC12)S(=O)(=O)c1ccc2nc(O)sc2c1 (stereo not drawn) [Compound I-482] to COc1ccc(S(=O)(=O)N(CC(C)C)CC(O)C(Cc2ccc(NCCOc3ccc(-c4sc5c(c4C(=O)O)CC(C)(C)CC5)c(C)c3)cc2)NC(=O)OC2COC3(C)OCCC23)cc1 (stereo not drawn) [Compound I-518], the IC50 rises from 2.27 nM to 5.63 nM (2.5-fold). The first is the more potent here.

Compared with COc1ccc(S(=O)(=O)N(CC(C)C)CC(O)C(Cc2ccc(N(Cc3ccccn3)Cc3ccccc3-c3sc4c(c3C(=O)O)CC(C)(C)CC4)cc2)NC(=O)OC2COC3(C)OCCC23)cc1 (stereo not drawn) [Compound I-486], COc1ccc(S(=O)(=O)N(CC(C)C)CC(O)C(Cc2ccc(N3CC4CC(Oc5ccccc5-c5sc6c(c5C(=O)O)CC(C)(C)CC6)CC4C3)cc2)NC(=O)OC2COC3(C)OCCC23)cc1 (stereo not drawn) [Compound I-508] is 1.8-fold higher in IC50: 4.59 nM for the first, 8.48 nM for the second. The first is the more potent here.

COc1ccc(S(=O)(=O)N(CC(C)C)CC(O)C(Cc2ccc(NCc3ccccc3-c3c(C(=O)O)[nH]c4c3CCCC4=O)cc2)NC(=O)OC2COC3(C)OCCC23)cc1 (stereo not drawn) [Compound I-495] and COc1ccc(S(=O)(=O)N(CC(C)C)CC(O)C(Cc2ccc(NCc3ccccc3-c3c(C(=O)O)[nH]c4ccc(OC)cc34)cc2)NC(=O)OC2COC3(C)OCCC23)cc1 (stereo not drawn) [Compound I-506] are within 1.5-fold of each other in IC50: 1.48 nM for the first, 1.7 nM for the second.

COc1ccc(S(=O)(=O)N(CC(C)C)CC(O)C(Cc2ccc(NCc3ccccc3-c3cc4c(cc3C(=O)O)OCCO4)cc2)NC(=O)OC2COC3(C)OCCC23)cc1 (stereo not drawn) [Compound I-496] and COc1ccc(S(=O)(=O)N(CC(C)C)CC(O)C(Cc2ccc(NCc3ccccc3-c3ccsc3C(=O)O)cc2)NC(=O)OC2COC3(C)OCCC23)cc1 (stereo not drawn) [Compound I-498] are within 1.5-fold of each other in IC50: 1.81 nM for the first, 1.83 nM for the second.

COc1ccc(S(=O)(=O)N(CC(C)C)CC(O)C(Cc2ccc(NCc3ccccc3-c3ccccc3C(=O)O)cc2)NC(=O)OC2COC3(C)OCCC23)cc1 (stereo not drawn) [Compound I-497] and COc1ccc(S(=O)(=O)N(CC(C)C)CC(O)C(Cc2ccc(NCc3ccccc3-c3cccc4[nH]c(C(=O)O)cc34)cc2)NC(=O)OC2COC3(C)OCCC23)cc1 (stereo not drawn) [Compound I-502] are within 1.5-fold of each other in IC50: 1.96 nM for the first, 1.87 nM for the second.

COc1ccc(S(=O)(=O)N(CC(C)C)CC(O)C(Cc2ccc(NCc3ccccc3-c3ccc(OC(F)(F)F)cc3C(=O)O)cc2)NC(=O)OC2COC3(C)OCCC23)cc1 (stereo not drawn) [Compound I-499] and COc1ccc(S(=O)(=O)N(CC(C)C)CC(O)C(Cc2ccc(NCc3ccccc3-c3c(C(=O)O)cnc4ccc(OC)cc34)cc2)NC(=O)OC2COC3(C)OCCC23)cc1 (stereo not drawn) [Compound I-500] are within 1.5-fold of each other in IC50: 1.73 nM for the first, 1.78 nM for the second.

COc1ccc(S(=O)(=O)N(CC(C)C)CC(O)C(Cc2ccc(NCc3ccccc3-c3c(C(=O)O)cnc4ccsc34)cc2)NC(=O)OC2COC3(C)OCCC23)cc1 (stereo not drawn) [Compound I-501] and COc1ccc(S(=O)(=O)N(CC(C)C)CC(O)C(Cc2ccc(NCc3ccccc3-c3c(C(=O)O)cnc4sccc34)cc2)NC(=O)OC2COC3(C)OCCC23)cc1 (stereo not drawn) [Compound I-504] are within 1.5-fold of each other in IC50: 1.82 nM for the first, 1.93 nM for the second.

COc1ccc(S(=O)(=O)N(CC(C)C)CC(O)C(Cc2ccc(NCc3ccccc3-c3ccc4cc(C(=O)O)[nH]c4c3)cc2)NC(=O)OC2COC3(C)OCCC23)cc1 (stereo not drawn) [Compound I-503] and COc1ccc(S(=O)(=O)N(CC(C)C)CC(O)C(Cc2ccc(NCc3ccccc3-c3c(C(=O)O)cnc4onc(C)c34)cc2)NC(=O)OC2COC3(C)OCCC23)cc1 (stereo not drawn) [Compound I-505] are within 1.5-fold of each other in IC50: 1.68 nM for the first, 1.55 nM for the second.

COc1ccc(S(=O)(=O)N(CC(C)C)CC(O)C(Cc2ccc(NCCn3nc4c(c3C(=O)O)CC(C)(C)CC4)cc2)NC(=O)OC2COC3(C)OCCC23)cc1 (stereo not drawn) [Compound I-516] and COc1ccc(S(=O)(=O)N(CC(C)C)CC(O)C(Cc2ccc(N(C)CCn3nc4c(c3C(=O)O)CC(C)(C)CC4)cc2)NC(=O)OC2COC3(C)OCCC23)cc1 (stereo not drawn) [Compound I-517] are within 1.5-fold of each other in IC50: 2.29 nM for the first, 2.56 nM for the second.

Work on COc1ccc(S(=O)(=O)N(CC(C)C)CC(O)C(Cc2ccc(-n3cccc3)cc2)NC(=O)OC2COC3(C)OCCC23)cc1 (stereo not drawn) [Compound I-521] yielded an IC50 of 2.84 nM.
